{
  "source": "patent US11179385B2",
  "about": "(THE TRUSTEES OF THE UNIVERSITY OF PENNSYLVANIA, priority 2015, dated 2021)",
  "key": {"[1]": {"test_system": "B16-F10 melanoma cells in C57BL/6J mice", "assay": "Topical resiquimod gel in the B16 melanoma model", "format": "in vivo, mouse", "text": "FIGS. 5A-5E. […] FIG. 5A) Treatment scheme. […] Arrow points to the inflammatory cells. FIG. 5E) Fold changes in cytokine and chemokine mRNA expression in the tumor tissues from treated mice compared to control mice. *indicates p<0.05. Bars in d indicate 25 μm.\nTumor tissues were processed and we measured cytokine and chemokine mRNA expression in the tumor using qRT-PCR."}, "T cells from spleen": {"test_system": "T cells from spleen", "assay": "Cytokine release by T cells from spleen after stimulation", "format": "cell-based, mouse", "conditions": "resiquimod treated T cells from spleen", "method": "(§1) Once these mice developed palpable tumors, resiquimod treatment was administered twice a week. […] CD8 depletion was achieved using anti-CD8 antibody. […]"}, "[2]": {"test_system": "melanoma in Tyr::creER, BRAF^ca, Phd2^lox/lox mice", "assay": "Topical resiquimod on melanoma progression in Tyr::creER, BRAFca, Phd2lox/lox mice", "format": "in vivo, mouse", "conditions": "topical 0.2% twice a week for 6 weeks", "text": "FIGS. 2A-2L. […] FIG. 2A) Treatment scheme. FIG. 2B) Large tumor in a mouse treated with vehicle (n=10). FIG. 2C) Underside of skin filled with tumor. FIGS. 2D and 2E) Histology of melanoma in a control mouse. The dermis is filled with tumor cells. […] FIG. 2G) Underside of skin cleared of tumor. FIG. 2H) Histology of skin in a treated mouse, normal appearing. FIG. 2I) Macrophages with pigment are present in the dermis in a treated mouse. Arrow points to macrophages. FIG. 2J)Tumor growth curve. FIG. 2K) In situ melanoma in control mice. Arrows point to the tumor cells in the epidermis and hair follicle. I) Normal appearing epidermis in treated mice. *indicates p<0.05. Bars in b, c, f and g indicate 6 mm. Bars in d, e, h and I, indicate 200 μm. Bars in k and l indicate 10 μm.\nThe Tyr:creER, BRAF^ca, phd2^lox/lox mouse melanoma model was developed in Dr. Xu's lab. Melanoma can be induced with 100% penetrance using topical 4-HT. Lymph node metastasis is frequent in these mice. […] The melanoma in control mice grew and the tumor became very big at day 180 (FIG. 2B). These mice were sacrificed. The underside of skin was occupied completely by tumor (FIG. 2C). Histologically, the dermis was filled entirely by melanoma cells (FIG. 2D and FIG. 2E). […] Histologically, dermal melanoma had regressed (FIG. 2H) and numerous macrophages with pigment were present in the dermis (FIG. 2I), indicating melanoma has regressed. None of the treated mice developed lymph node metastasis."}, "[3]": {"test_system": "nevus-like pigmented tumors in Tyr::creER, BRAF^ca mice", "assay": "Topical resiquimod gel on pigmented tumor progression in Tyr::creER, BRAFca mice (nevus model)", "format": "in vivo, mouse", "method": "FIGS. 1A-1I. […] FIG. 1A) Treatment scheme. […] FIG. 1D) Pigmented lesion in a mouse before treatment. […] FIG. 1F) Histology of tumor treated with vehicle. […] Bars in b-e indicate 6 mm. Bars in f-h indicate 200 μm.\nA majority of nevi and melanomas contain BRAF mutations, particularly the BRAFV600E mutation.\nMice treated with blank topical gel were used as controls. […] Tumor diameters were measured using calipers every three days."}, "[4]": {"test_system": "B16-F10 melanoma cells in CD8 depleted C57 mice", "assay": "Resiquimod gel in CD8 depleted C57 mice with B16-F10 melanoma", "format": "in vivo, mouse", "method": "as §1"}, "[5]": {"test_system": "melanoma in Tyr::creER, BRAF^ca, Pten^lox/lox mice", "assay": "Resiquimod in combination with anti-PD1 therapy in Tyr::creER, BRAFca, Ptenlox/lox mice", "format": "in vivo, mouse", "conditions": "0.2% resiquimod twice a week for 6 weeks; anti-PD1 200 μg i.p. twice a week for 5 weeks", "text": "FIGS. 7A-7G. […] FIG. 7A) Treatment scheme. […] FIG. 7F) Effect of therapies on melanoma growth (n=5 each group). FIG. 7G) Effect of therapies on lymph node metastasis. *indicates p<0.05. **indicates p<0.01. Bars indicate 6 mm."}, "[6]": {"test_system": "B16-F10 melanoma cells in RAG-1-deficient mice", "assay": "Resiquimod gel in RAG-1-deficient mice with B16-F10 melanoma", "format": "in vivo, mouse", "method": "as §1"}, "[7]": {"test_system": "melanoma in Tyr::creER, BRAF^ca, Pten^lox/lox mice", "assay": "Topical resiquimod gel on melanoma progression in Tyr::creER, BRAFca, Ptenlox/lox mice", "format": "in vivo, mouse", "text": "FIGS. 3A-3I. […] FIG. 3A) Treatment scheme. FIG. 3B) Representative image of a mouse with control treatment (n=15). […] FIG. 3D) Histology of melanoma in a control mouse. […] FIG. 3E) Histology of melanoma in a treated mouse. […] Bars indicate 6 mm in FIG. 3B and FIG. 3C, 400 μm in FIG. 3D and FIG. 3E and 50 μm in FIG. 3H and FIG. 3I.\nFIGS. 4A-4I. […] FIG. 4A) Treatment scheme. […] All measurement was compared to the control. *indicates p<0.05.\nTumor and spleen tissues were processed and multicolor flow cytometry analysis was performed."}, "[8]": {"test_system": "T cell activation; cytokine induction", "conditions": "cited from earlier work"}, "[9]": {"assay": "Stability and solubility of resiquimod in ethanol:PBS topical formulation (HPLC)", "format": "physicochemical", "conditions": "50:50 ethanol:pbs topical formulation aged for 2 weeks"}, "[10]": {"conditions": "0.2% resiquimod gel twice a week"}, "[11]": {"conditions": "qRT-PCR, compared to control mice"}, "[12]": {"conditions": "treated 3 weeks, flow cytometry of tumor"}},
  "data": [
    {"smiles": "CCOCc1nc2c(N)nc3ccccc3c2n1CC(C)(C)O", "note": "[resiquimod, 1-[4-amino-2-(ethoxymethyl)imidazo[4,5-c]quinolin-1-yl]-2-methylpropan-2-ol]", "values": [
      {"measurement": "histology: inflammatory cells in the tumor", "setting": "[1]; [10]", "result": "more inflammatory cells"},
      {"measurement": "lifespan (survival) of treated mice", "setting": "[1]; [10]", "result": "prolonged the lifespan"},
      {"measurement": "melanoma growth", "setting": "[1]; [10]", "result": "significantly slowed the melanoma growth"},
      {"measurement": "CCL2 mRNA expression in the tumor", "setting": "[1]; [11]", "result": "increased"},
      {"measurement": "INF-γ mRNA expression in the tumor", "setting": "[1]; [11]", "result": "increased"},
      {"measurement": "TNF-α mRNA expression in the tumor", "setting": "[1]; [11]", "result": "increased"},
      {"measurement": "expression of IFN-γ by T cells after stimulation", "setting": "T cells from spleen", "result": "increased expression"},
      {"measurement": "histology: dermal melanoma", "setting": "[2]", "result": "regressed"},
      {"measurement": "melanoma cells in the epidermis (in situ melanoma)", "setting": "[2]", "result": "disappeared after treatment"},
      {"measurement": "treated mice that developed lymph node metastasis", "setting": "[2]", "result": "None"},
      {"measurement": "tumor on underside of skin", "setting": "[2]", "result": "significantly less tumors"},
      {"measurement": "melanoma growth", "setting": "[2]; started 140 days after induction", "result": "inhibited"},
      {"measurement": "pigmented lesion growth (tumor diameter)", "setting": "[3]; 0.2% resiquimod topical gel twice a week for six weeks vs blank gel", "result": "regressed"},
      {"measurement": "histology: pigmented tumor cells in the dermis", "setting": "[3]; 0.2% topical gel twice a week for six weeks", "result": "disappeared"},
      {"measurement": "pigmented tumor cells in the epidermis", "setting": "[3]; 0.2% topical gel twice a week for six weeks, data not shown", "result": "regressed completely"},
      {"measurement": "palpable pigmented lesion after treatment", "setting": "[3]; different experiment, topical resiquimod for 1 month", "result": "disappeared after treatment"},
      {"measurement": "effect of resiquimod on survival curves", "setting": "[4]; CD8-depleted mice", "result": "abolished"},
      {"measurement": "effect on melanoma", "setting": "[4]; CD8 T cell depleted mice (anti-CD8 antibody), resiquimod twice a week", "result": "little effect"},
      {"measurement": "lymph node metastasis (number of positive lymph nodes)", "setting": "[5]", "result": "significantly reduced"},
      {"measurement": "melanoma growth (tumor volume)", "setting": "[5]", "result": "significantly slowed melanoma growth"},
      {"measurement": "effect on melanoma growth", "setting": "[6]; RAG-1-deficient mice, resiquimod gel twice a week", "result": "little effect"},
      {"measurement": "effect of resiquimod on survival curves", "setting": "[6]; Rag-1-deficient mice", "result": "abolished"},
      {"measurement": "melanoma growth (tumor volume)", "setting": "[7]; resiquimod gel twice a week for 6 weeks vs control vehicle", "result": "significantly slowed melanoma growth"},
      {"measurement": "tumor thickness", "setting": "[7]; treated 3 weeks", "result": "significantly thinner tumors"},
      {"measurement": "CD45+CD11B+F4/80-Ly6g high MDSCs in the tumor", "setting": "[7]; [12]", "result": "decrease"},
      {"measurement": "PD1+CD8+ T cells", "setting": "[7]; [12]", "result": "significantly increased"},
      {"measurement": "expression of granzyme B in CD8^- T cells", "setting": "[7]; [12]", "result": "increased"},
      {"measurement": "intratumoral CD45+ inflammatory cells", "setting": "[7]; [12]", "result": "significant increase"},
      {"measurement": "number of GranB+CD8+ T cells", "setting": "[7]; [12]", "result": "increased"},
      {"measurement": "number of GranB+CD8+Ki-67+ T cells", "setting": "[7]; [12]", "result": "increased"},
      {"measurement": "mice that developed lymph node metastasis", "setting": "[7]; treated 3 weeks, sacrificed on treatment, control: all 5 mice", "result": "2 of 5"},
      {"measurement": "positive lymph nodes per mouse with metastasis", "setting": "[7]; treated 3 weeks, control 2-4 per mouse", "result": 1},
      {"measurement": "histology: infiltration of melanoma through skeletal muscle", "setting": "[7]; twice a week for 6 weeks", "result": "did not infiltrate through the skeletal muscle"},
      {"measurement": "in situ melanoma in the epidermis", "setting": "[7]; twice a week for 6 weeks", "result": "disappeared after treatment"},
      {"measurement": "lifespan (survival) of treated mice", "setting": "[7]; twice a week for 6 weeks", "result": "prolonged the lifespan"},
      {"measurement": "induction of IFN-α, TNF-α, IL-1, IL-6, IL-8 and IL-12 compared with imiquimod", "setting": "[8]", "result": "more potent inducer"},
      {"measurement": "solubility in base formulation", "setting": "[9]", "result": "soluble"}
    ]}
  ]
}
